Experimental data taken from patent US4281654A, “Drug delivery system for controlled ocular therapy” (ALZA Corporation, priority 1980, dated 1981).
Converted amounts (≈) assume the structure as drawn. Counter-ions that a name gives are not always drawn. Blank lines part the entries; values can stand above or below the compound they belong to.

Assays:
[1] = tested on: open-angle glaucoma, intraocular pressure; assay: Clinical study of mean intraocular pressure (IOP) in patients diagnosed as having open-angle glaucoma; assay type: in vivo, patients (human); details: 12 patients
Excerpt: The present invention provides an ocular therapeutic system for administering a therapeutically effective amount of a beta-adrenergic blocking drug, and a therapeutically effective amount of a parasympathomimetic drug concurrently from a single ocular dosage form that can lead to synergestic clinical results. The clinical study that follows presents the results obtained by the simultaneous administration to the eye of a beta-adrenergic blocking drug and a parasympathomimetic drug to the eyes of patients.
In a clinical study using 12 patients diagnosed as having open-angle glaucoma, the mean intraocular pressures, IOP's, were measured with each patient under the following therapies: (a) S-(-)-1-(tert-butylamino)-3-[(4-morpholino-1,2,5-thiadiazol-3-yl)oxy-2-propanol maleate, timolol maleate, 0.25% ophthalmic solution instilled as drop alone; (b) timolol maleate, 0.50% ophthalmic solution instilled as drop alone; (c) (3s-cis)-3-ethyldihydro-4-[(1-methyl-1H-imidazol-5-yl) methyl]-2(3H)-furanone, pilocarpine, administered at a rate of 40 micrograms per hour from an ocular therapeutic system placed in the conjunctival sac; (d) therapy comprising 0.25 timolol maleate instilled with concomitant release of 40 micrograms of pilocarpine from an ocular system; and (e) therapy comprising 0.50 timolol maleate instilled with concomitant release of 40 mcg (micrograms) of pilocarpine from an ocular system. In the table, the results of (a) and (c) administered alone are additive, while the results are synergistic for (d) wherein the two drugs were administered concomitantly to the eye. In the table, the results of (b) and (c) administered alone are additive, where the results are synergistic for (e) wherein the two drugs were administered concomitantly to the eye.

[2] = Solubility in distilled water; assay type: physicochemical
[3] = Osmotic pressure of the solute; assay type: physicochemical
Excerpt: The osmotic pressure, ATM, of the above solutes can be measured in a commercially available osmometer that measures the vapor pressure difference between pure water and the solution containing a solute to be analyzed, and according to standard thermodynamic principles, the vapor pressure ratio is converted into osmotic pressure difference. An osmometer that can be used for the present measurements is identified as Model 302B Vapor Pressure Osmometer, manufactured by Hewlett Packard Company, Avondale, Pa.

SMILES: CC[C@@H]1C(=O)OC[C@@H]1Cc1cncn1C (relative stereo) [pilocarpine, (3s-cis)-3-ethyldihydro-4-[(1-methyl-1H-imidazol-5-yl)methyl]-2(3H)-furanone]
Mean IOP Reduction ([1]; (c) pilocarpine 40 mcg/hr alone from ocular therapeutic system in conjunctival sac): 1.6 mm

SMILES: CC(C)(C)NC[C@H](O)COc1nsnc1N1CCOCC1 [timolol, S-(-)-1-(tert-butylamino)-3-[(4-morpholino-1,2,5-thiadiazol-3-yl)oxy-2-propanol maleate]
Mean IOP Reduction ([1]; (a) timolol maleate 0.25% ophthalmic solution instilled as drop alone): 1.4 mm
Mean IOP Reduction ([1]; (b) timolol maleate 0.50% ophthalmic solution instilled as drop alone): 2.4 mm

solubility ([2]; water): 270 mg/mL (≈ 1300 mM)
osmotic pressure [3]: 37 atm
SMILES: CC[C@@H]1C(=O)OC[C@@H]1Cc1cncn1C [(3S-cis)-ethyldihydro-4-[(1-methyl-1H-imidazol-5-yl)methyl]-2(3H)-furanonenitrate]

solubility ([2]; 25° C): 860 mg/mL (≈ 3220 mM)
osmotic pressure [3]: 210 atm
SMILES: COCCc1ccc(OCC(O)CNC(C)C)cc1 (racemic) [(±)-1-[4-(2-methoxyethyl)-phenoxy]-3-[(1-methylethyl)amino]-2-propanol tratrate]
